# Source: EP2951180B1, “2,6,7,8 SUBSTITUTED PURINES AS HDM2 INHIBITORS” (Merck Sharp & Dohme Corp., priority 2013, dated 2014)
# Where two headings read alike, the source gives them in different places.
# Biological target: T1, HDM2 (Homo sapiens, UniProt Q00987)
# T1 construct: Thioredoxin (N); made in house; host or cells: E. coli strain BL21(DE3)Rosetta
# Test: HDM2 FRET assay (inhibition of binding of FITC labeled p53-pocket peptide to HDM2)
# Details: for IC50: read-out: FRET IC50
# Procedure, shortened: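 Displacement of FITC-p53 peptide (3 nM) from His-tagged HDM2 (0.5 nM) is measured by Tb-to-fluorescein FRET in PBS, 0.01% BSA, 0.01% Tween-20. IC50 values derive from 10-point curves.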
# T1 sequence (Q00987 17-125): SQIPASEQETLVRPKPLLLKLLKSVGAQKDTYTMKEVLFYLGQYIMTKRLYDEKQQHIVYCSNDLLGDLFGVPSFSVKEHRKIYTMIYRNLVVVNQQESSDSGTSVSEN
smiles,measurement,setting,value
"Cc1cccc(-c2nc3nc(C(=O)O)nc(N4CCCC4CC(C)C)c3n2Cc2ccc(C(F)(F)F)cc2)c1 (stereo not shown) [Example 6.76, 8-(3-methylphenyl)-6-[2-(2-methylpropyl)pyrrolidin-1-yl]-7-[4-(trifluoromethyl)benzyl]-7H-purine-2-carboxylic acid]",inhibition at 1 µM,read-out: inh. at 1000 nM (FRET),32%
"CC(Nc1nc2nc(-c3noc(=O)[nH]3)nc(N[C@H](C)C3CCC3)c2n1C[C@H]1CC[C@H](C)CC1)c1ccno1 (stereo partly drawn) [Example 11.87, 3-(6-{[(1R)-1-cyclobutylethyl]amino}-8-[(1-isoxazol-5-ylethyl)amino]-7-[(trans-4-methylcyclohexyl)methyl]-7H-purin-2-yl)-1,2,4-oxadiazol-5(2H)-one]",IC50,Table 11,105 nM
"CCCC1CCCN1c1nc2nc(-c3noc(=O)[nH]3)nc(N[C@H](C)C3CCC3)c2n1C[C@H]1CC[C@H](C)CC1 (stereo partly drawn) [Example 11.35, 3-[6-{[(1R)-1-cyclobutylethyl]amino}-7-[(trans-4-methylcyclohexyl)methyl]-8-(2-propylpyrrolidin-1-yl)-7H-purin-2-yl]-1,2,4-oxadiazol-5(2H)-one]",IC50,Table 11,4.4 nM
"C[C@@H](Nc1nc(C(=O)O)nc2nc(N3CCc4ccccc4C3)n(Cc3ccc(C(F)(F)F)cc3)c12)C1CCC1 [Example 9.121, 6-{[(1R)-1-cyclobutylethyl]amino}-8-(3,4-dihydroisoquinolin-2(1H)-yl)-7-[4-(trifluoromethyl)benzyl]-7H-purine-2-carboxylic acid]",IC50,Table 9,10.6 nM
"C[C@H]1CC[C@H](Cn2c(N3CCOC[C@H]3c3ccccc3)nc3nc(-c4noc(=O)[nH]4)nc(N4CC[C@@H]4C4CCC4)c32)CC1 [Example 11.9, 3-(6-((R)-2-Cyclobutylazetidin-1-yl)-7-((trans-4-methylcyclohexyl)methyl)-8-((R)-3-phenylmorpholino)-7H-purin-2-yl)-1,2,4-oxadiazol-5(4H)-one]",IC50,Table 11,27.3 nM
"Cc1cccc(-c2nc3nc(C(=O)O)nc(NC(C)C4CC4C)c3n2Cc2ccc(C(F)(F)F)cc2)c1 (stereo not shown) [Example 6.38, 6-{[1-(2-methylcyclopropyl)ethyl]amino}-8-(3-methylphenyl)-7-[4-(trifluoromethyl)benzyl]-7H-purine-2-carboxylic acid]",IC50,Table 6,530 nM
"CC(C)c1ccnc(-c2nc3nc(C(=O)O)nc(N[C@H](c4ccccc4)C4CCC4)c3n2Cc2ccc(C(F)(F)F)cc2)c1 [Example 7.16, 6-{[(S)-cyclobutyl(phenyl)methyl]amino}-8-[4-(1-methylethyl)pyridin-2-yl]-7-[4-(trifluoromethyl)benzyl]-7H-purine-2-carboxylic acid]",IC50,Table 7,40.6 nM
"C[C@@H](Nc1nc(C(=O)O)nc2nc(-c3cc(C4CC4)ccn3)n(C[C@H]3CC[C@H](C)CC3)c12)C1CCC1 [Example 15.17, 6-{[(1R)-1-cyclobutylethyl]amino}-8-(4-cyclopropylpyridin-2-yl)-7-[(trans-4-methylcyclohexyl)methyl]-7H-purine-2-carboxylic acid]",IC50,"0.5 nM HDM2 (residues 17 to 125), 3nM peptide, two hour incubation at room temperature",2.09 nM
"Cc1cccc(-c2nc3nc(C(=O)O)nc(N[C@H](C)C4CCC4)c3n2Cc2ccc(Br)cc2)c1 [Example 6.7, 7-(4-bromobenzyl)-6-{[(1R)-1-cyclobutylethyl]amino}-8-(3-methylphenyl)-7H-purine-2-carboxylic acid]",IC50,Table 6,75.7 nM
"C[C@@H]1CN(C(=O)OC(C)(C)C)[C@@H](C)CN1c1nc2nc(-c3noc(=O)[nH]3)nc(N[C@H](C)C3CCC3)c2n1C[C@H]1CC[C@H](C)CC1 [Example 17.20, tert-butyl (2S,5R)-4-[6-{[(1R)-1-cyclobutylethyl]amino}-7-[(trans-4-methylcyclohexyl)methyl]-2-(5-oxo-4,5-dihydro-1,2,4-oxadiazol-3-yl)-7H-purin-8-yl]-2,5-dimethylpiperazine-1-carboxylate]",IC50,Table 17.2,14.7 nM
